Results published in patent US20200010910A1, “Cytotoxic Chemotherapy-Based Predictive Assays for Acute Myeloid Leukemia” (The Regents of The University of California, priority 2017, published 2020).
Several values for one entry are separate records, joined by “and”; a condition that tells them apart may be missing. Identical values can stand only once.

Legend:
[1] = tested on: A549; assay: MTT assay IC50; format: cell-based, human
Procedure: (§1) Six non-small cell lung cancer (NSCLC) cell lines were treated in culture with [^14C]carboplatin. Carboplatin-DNA monoadduct levels over time were determined by measuring ^14C content in genomic DNA with accelerator mass spectrometry (AMS). Cellular sensitivity to carboplatin and cisplatin was analyzed by the MTT assay (Henderson et al., International Journal of Cancer 2011).
(§2) Human NSCLC cell lines H23, H460, H727, HCC827, H1975, and A549 were purchased from ATCC and were cultured with the recommended medium. The MTT assay was performed as previously reported to determine the drug concentration required to inhibit cell growth by 50% (IC50) of cisplatin and carboplatin. [^14C]Carboplatin (at 53 mCi/mmol) was mixed with unlabeled carboplatin to achieve the specific activities required for microdoses and therapeutic doses. Table 1 lists the six NSCLC cell lines and summarizes their IC50 characteristics, induced carboplatin-DNA monoadducts when treated with [^14C]carboplatin, and p and r^2 values for correlation analysis to the IC50 concentrations.

[2] = tested on: H1975; assay: MTT assay IC50; format: cell-based, human
Procedure: as §1, §2

[3] = tested on: H23; assay: MTT assay IC50; format: cell-based, human
Procedure: as §1, §2

[4] = tested on: H460; assay: MTT assay IC50; format: cell-based, human
Procedure: as §1, §2

[5] = tested on: H727; assay: MTT assay IC50; format: cell-based, human
Procedure: as §1, §2

[6] = tested on: HCC827; assay: MTT assay IC50; format: cell-based, human
Procedure: as §1, §2

[7] = tested on: 5637; assay: MTT assay IC50, bladder cancer cell line; format: cell-based, human; details: 72 hours
Procedure: Thus, we measured the IC50 of the six NSCLC cell lines from Example 2 to both cisplatin and carboplatin to determine if the sensitivity of these six NSCLC cell lines to the two drugs are correlated.
Drug-DNA adduct formation and repair was measured by accelerator mass spectrometry.
These two cell lines were also cultured with a range of concentrations of cisplatin, carboplatin, gemcitabine, doxorubicin, methotrexate and vinblastine for 72 hours to determine IC50 for these other drugs (FIG. 16C). These drugs were chosen because of their frequent use in the treatment of bladder cancer.

[8] = tested on: PBMC; assay: microdose-induced carboplatin-DNA monoadducts in patients; format: in vivo, human; details: for 4 h adducts PBMC / 24 h adducts PBMC: microdose; for lowest DNA monoadduct level observed: first nineteen patients, microdose 1% of therapeutic dose
Procedure: Based upon the previous mouse studies that identified a minimal microdose for accurate AMS analysis of carboplatin monoadducts (1% of therapeutic carboplatin containing 50,000 DPM/gm of mouse body weight), the first in-human evaluation of microdose [^14C]carboplatin was conducted at this same equivalent formulation. The mouse radioactive dose (50,000 DPM/gm), adjusted for body surface area differences between mouse and humans, is equivalent to a dose of 1.0×10^7 DPM/kg of human body weight. The carboplatin dose for human chemotherapy is personalized to a patient's size and kidney function and is calculated using the Calvert formula with an AUC of 6 (Calvert, A. H., et al. “Carboplatin dosage: prospective evaluation of a simple formula based on renal function.” Journal of Clinical Oncology 7.11 (1989): 1748-1756). […] After blood collection, the BD Vacutainer CPT™ tubes were gently inverted several times to ensure mixing with heparin anticoagulant. The tubes were immediately placed on ice or stored at 4° C. and_then processed within 2 hours of collection to separate plasma and PBMC. For processing, the blood filled BD Vacutainer CPT™ tubes were centrifuged at room temperature in a horizontal rotor for 25 minutes at 1600×g. The top plasma layer was transferred to separate tubes and stored at or below −70° C. After most of the plasma was removed from the CPT tube, PBMC were transferred to another tube and washed three times with ice-cold phosphate-buffered solution (PBS). After pelleting the cells and removing the supernatant, the PBMC's were stored frozen at −80° C. until being processed to isolate DNA for determination of the carboplatin-DNA monoadduct frequency. Tumor samples were collected by biopsy or resection approximately 24 hours after administration of the [^14C]carboplatin microdose. These tumor specimens were placed in ice immediately after being obtained, washed three times with ice-cold PBS, and stored at or below −20° C. within 2 hours of collection. These frozen tumor samples were then processed at a later time to isolate DNA for determination of the carboplatin-DNA monoadduct frequency. To isolate DNA, tumor tissue was placed on ice in a sterile petri dish and minced with a sterile scalpel for approximately 30-90 sec per sample. Approximately 20-100 mg of tissue was then processed using the modified Wizard DNA isolation protocol as described previously.
Two lung and three bladder cancer patients were monitored post carboplatin therapeutic treatment to determine therapeutic outcome. Each patient was given a microdose of [^14C]carboplatin by IV injection. The microdose was 1% of therapeutic based upon Calvert calculation and formulated with [^14C]carboplatin at 1.0×10^7 DPM/kg of body weight. At time points of 2, 4, 8 and 24 hours, blood samples were taken from which PBMCs were isolated determination of carboplatin-DNA monoadduct frequency, and expressed as carboplatin-DNA monoadducts per 10^8 nucleotides (FIG. 13).
As we have shown in cell culture and mouse tumor xenograph experiments, the carboplatin-DNA monoadduct frequency is proportional to the dose and time integrated exposure to carboplatin. In this example we establish the useful range of carboplatin-DNA monoadduct frequencies in cancer patients receiving 1% of their therapeutic dose of carboplatin at a fixed time after microdose exposure. […] DNA from PBMC and tumor tissue was extracted and analyzed by AMS for carboplatin-DNA monoadduct frequency. […] Tumor carboplatin-DNA monoadduct frequencies ranged from 0.3 and 42.5 adducts per 10^8 nucleotides.

[9] = tested on: Tumor Tissue; assay: as above; format: in vivo, human
Procedure: Based upon the previous mouse studies that identified a minimal microdose for accurate AMS analysis of carboplatin monoadducts (1% of therapeutic carboplatin containing 50,000 DPM/gm of mouse body weight), the first in-human evaluation of microdose [^14C]carboplatin was conducted at this same equivalent formulation. The mouse radioactive dose (50,000 DPM/gm), adjusted for body surface area differences between mouse and humans, is equivalent to a dose of 1.0×10^7 DPM/kg of human body weight. The carboplatin dose for human chemotherapy is personalized to a patient's size and kidney function and is calculated using the Calvert formula with an AUC of 6 (Calvert, A. H., et al. “Carboplatin dosage: prospective evaluation of a simple formula based on renal function.” Journal of Clinical Oncology 7.11 (1989): 1748-1756). […] After blood collection, the BD Vacutainer CPT™ tubes were gently inverted several times to ensure mixing with heparin anticoagulant. The tubes were immediately placed on ice or stored at 4° C. and_then processed within 2 hours of collection to separate plasma and PBMC. For processing, the blood filled BD Vacutainer CPT™ tubes were centrifuged at room temperature in a horizontal rotor for 25 minutes at 1600×g. The top plasma layer was transferred to separate tubes and stored at or below −70° C. After most of the plasma was removed from the CPT tube, PBMC were transferred to another tube and washed three times with ice-cold phosphate-buffered solution (PBS). After pelleting the cells and removing the supernatant, the PBMC's were stored frozen at −80° C. until being processed to isolate DNA for determination of the carboplatin-DNA monoadduct frequency. […]
As we have shown in cell culture and mouse tumor xenograph experiments, the carboplatin-DNA monoadduct frequency is proportional to the dose and time integrated exposure to carboplatin. […] DNA from PBMC and tumor tissue was extracted and analyzed by AMS for carboplatin-DNA monoadduct frequency. […]

[10] = sterile solution in water
Procedure: Radiolabeled carboplatin containing C^14 carbon atoms in the cyclobutane dicarboxylic acid group was formulated for human use as a sterile, pyrogen free solution at 5 mg/mL in water.

[11] = Bladder cancer, individual patients

## N.N.O=C([O-])C1(C(=O)[O-])CCC1.[Pt+2] [carboplatin]
[1]
  IC50: 196 µM
[2]
  IC50: 88.5 ± 30.8 µM
[3]
  IC50: 19.4 ± 8.65 µM
[4]
  IC50: 22 ± 5.23 µM
[5]
  IC50: 53.5 ± 3.65 µM
[6]
  IC50: 86.2 ± 10.9 µM
[7]
  IC50: 24.3 µM
[7]; listed as Carboplatin
  IC50: 24.35 ± 0.12 µM
[8]; [11]
  4 h adducts PBMC: 1.113 per 10^8 nt and 0.265 per 10^8 nt and 0.545 per 10^8 nt and 0.184 per 10^8 nt and 0.193 per 10^8 nt and 1.004 per 10^8 nt and 0.600 per 10^8 nt and 1.399 per 10^8 nt and 0.599 per 10^8 nt and 0.239 per 10^8 nt and 0.421 per 10^8 nt
  24 h adducts PBMC: 0.443 per 10^8 nt and 0.081 per 10^8 nt and 0.930 per 10^8 nt and 0.154 per 10^8 nt and 0.283 per 10^8 nt and 0.968 per 10^8 nt and 0.499 per 10^8 nt and 0.485 per 10^8 nt and 0.329 per 10^8 nt and 0.978 per 10^8 nt
[8]; Hodgkin patient
  4 h adducts PBMC: 0.861 per 10^8 nt
  24 h adducts PBMC: 0.472 per 10^8 nt
[8]; NSCLC, individual patients
  4 h adducts PBMC: 0.447 per 10^8 nt and 0.662 per 10^8 nt and 0.386 per 10^8 nt and 0.587 per 10^8 nt and 0.234 per 10^8 nt and 2.214 per 10^8 nt
  24 h adducts PBMC: 0.837 per 10^8 nt and 1.3 per 10^8 nt and 0.454 per 10^8 nt and 0.942 per 10^8 nt and 0.342 per 10^8 nt and 0.232 per 10^8 nt
[8]
  lowest DNA monoadduct level observed: ~3.2 monoadducts per cell
[8]; 1.0×10^7 DPM/kg
  lowest DNA monoadduct level observed: 0.05 adducts per 10^8 nucleotides
[9]; [11]
  24 h adducts Tumor: 20.2 per 10^8 nt and 14.8 per 10^8 nt and 5.37 per 10^8 nt and 3.13 per 10^8 nt and 0.31 per 10^8 nt and 42.5 per 10^8 nt and 8.79 per 10^8 nt and 0.923 per 10^8 nt
[9]; Hodgkin patient
  24 h adducts Tumor: 4.58 per 10^8 nt
[9]; NSCLC, individual patients
  24 h adducts Tumor: 0.87 per 10^8 nt and 0.66 per 10^8 nt and 1.3 per 10^8 nt
[10]; storage at −20° C.
  loss of radiopurity per year: < 2%
[10]; upon freezing
  stability to freeze/thaw: no observed precipitation
